# Reference: patent US20240174659A1, “COMPOUNDS AND METHODS FOR YAP/TEAD MODULATION AND INDICATIONS THEREFOR” (Opna Bio SA, priority 2021, published 2024)
# Tested on: TEAD-dependent transcription
# Test: Inhibitor activity against TEAD-dependent transcription in a cell-based reporter assay (MSTO-211H+12XGTIIC luciferase)
# Details: Homo sapiens; MSTO-211H+12XGTIIC cells, 24 hours incubation, luciferase luminescence normalized to cell viability fluorescence, geometric mean; read-out: MSTO-211H GMean IC50 (uM) Cell Assay Reporter Cell Variant: TEAD
# Source text: Determine Inhibitor Activity Against TEAD-Dependent Transcription in a Cell-Based Reporter Assay
# The human mesothelioma cell line MSTO-211H was stably transfected with a pGL4.21 plasmid containing a synthetic promoter with 12 copies of the GTIIC TEAD response element that drives the expression of a luciferase reporter gene^1 using Lipofectamine transfection reagent (Thermo Fisher). Transfected cells were selected using puromycin and single cell clones expressing this construct (referred to as MSTO-211H+12XGTIIC) were generated by limiting dilution. MSTO-211H cells was characterized by genetic alterations in key components of the Hippo pathway^2, resulting in up-regulation of YAP/TEAD-mediated transcription. […] To evaluate TEAD inhibitors, the MSTO-211H+12XGTIIC cell line was seeded in a 96-well plate in 50 μL of culture media at 1×10^4 cells per well and incubated at 37° C. overnight. Serial dilutions of compounds (in total volume of 50 μL of culture media) were added to the cells and incubated at 37° C. for 24 hours. Each plate included cells treated with DMSO as high controls and cells treated with 20 μM of the reference compound K-975 (a known TEAD inhibitor)^3 as low controls. Cell viability was assayed by the addition of 25 μL of CellTiter-Fluor reagent (Promega) followed by a 30-minute incubation at 37° C. and quantification of the fluorescence signal (Ex400/Em505). Subsequently, luciferase expression was assayed by the addition of 25 μL of ONE-Glo reagent (Promega) followed by a 10-minute incubation at room temperature and quantification of the luminescence signal. The luminescence signal was normalized to the fluorescence signal to correct for any loss in cell viability over the 24-hour compound incubation period. The percentage of inhibition of normalized luminescence signal, indicative of compound-mediated inhibition of TEAD-dependent transcription, at individual compound concentrations relative to high and low controls was calculated. The data were analyzed by using nonlinear regression to generate IC50 values for individual compounds.
row,Compound,IC50 [µM]
1,"C=CC(=O)N1CCc2ccc(OCC3CCC(F)(F)CC3)cc2C1 [P-0080, 1-(7-((4,4-difluorocyclohexyl)methoxy)-3,4-dihydroisoquinolin-2(1H)-yl)prop-2-en-1-one]",0.001 to 0.5
2,"C=CC(=O)N1CCc2ccc(OCc3cc(C)on3)cc2C1 [P-0081, 1-(7-((5-methylisoxazol-3-yl)methoxy)-3,4-dihydroisoquinolin-2(1H)-yl)prop-2-en-1-one]",> 20
3,"C=CC(=O)N1CCc2ccc(OC3CCC(C)(C)CC3)cc2C1 [P-0082, 1-(7-((4,4-dimethylcyclohexyl)oxy)-3,4-dihydroisoquinolin-2(1H)-yl)prop-2-en-1-one]",0.001 to 0.5
4,"C=CC(=O)N1CCc2ccc(OCc3cccc(C(F)(F)F)c3)cc2C1 [P-0083, 1-(7-((3-(trifluoromethyl)benzyl)oxy)-3,4-dihydroisoquinolin-2(1H)-yl)prop-2-en-1-one]",0.001 to 0.5
5,"C=CC(=O)N1CCc2ccc(OC3CCS(=O)(=O)CC3)cc2C1 [P-0084, 1-(7-((1,1-dioxidotetrahydro-2H-thiopyran-4-yl)oxy)-3,4-dihydroisoquinolin-2(1H)-yl)prop-2-en-1-one]",0.001 to 0.5
6,"C=CC(=O)N1CCc2ccc(OC3CCC(F)(F)C3)cc2C1 (stereo not shown) [P-0085, 1-(7-((3,3-difluorocyclopentyl)oxy)-3,4-dihydroisoquinolin-2(1H)-yl)prop-2-en-1-one]",0.001 to 0.5
7,"C=CC(=O)N1CCc2ccc(O[C@@H]3C[C@@H]4[C@H](C3)C4(F)F)cc2C1 [P-0086, 1-(7-(((1R,3s,5S)-6,6-difluorobicyclo[3.1.0]hexan-3-yl)oxy)-3,4-dihydroisoquinolin-2(1H)-yl)prop-2-en-1-one]",0.001 to 0.5
8,"C=CC(=O)N1CCc2ccc(NC3CC4C(C3)C4(F)F)cc2C1 (stereo not shown) [P-0087, 1-(7-((6,6-difluorobicyclo[3.1.0]hexan-3-yl)amino)-3,4-dihydroisoquinolin-2(1H)-yl)prop-2-en-1-one]",0.001 to 0.5
9,"C=CC(=O)N1CCc2ccc(OCc3ccccc3C(F)(F)F)cc2C1 [P-0088, 1-(7-((2-(trifluoromethyl)benzyl)oxy)-3,4-dihydroisoquinolin-2(1H)-yl)prop-2-en-1-one]",0.001 to 0.5
10,"C=CC(=O)N1CCc2ccc(NCc3ccccc3)cc2C1 [P-0089, 1-(7-(benzylamino)-3,4-dihydroisoquinolin-2(1H)-yl)prop-2-en-1-one]",0.001 to 0.5
11,"C=CC(=O)N1CCc2ccc(NCc3cccc(F)c3)cc2C1 [P-0090, 1-(7-((3-fluorobenzyl)amino)-3,4-dihydroisoquinolin-2(1H)-yl)prop-2-en-1-one]",0.001 to 0.5
12,"C=CC(=O)N1CCc2ccc(OCc3cccc(F)c3)cc2C1 [P-0091, 1-(7-((3-fluorobenzyl)oxy)-3,4-dihydroisoquinolin-2(1H)-yl)prop-2-en-1-one]",0.001 to 0.5
13,"C=CC(=O)N1CCc2ccc(Oc3cccc(C#N)c3)cc2C1 [P-0092, 3-((2-acryloyl-1,2,3,4-tetrahydroisoquinolin-7-yl)oxy)benzonitrile]",0.001 to 0.5
14,"C=CC(=O)N1Cc2cc(Oc3ccc(C(F)(F)F)nc3)ccc2C(C)C1 (stereo not shown) [P-0093, 1-(4-methyl-7-((6-(trifluoromethyl)pyridin-3-yl)oxy)-3,4-dihydroisoquinolin-2(1H)-yl)prop-2-en-1-one]",0.001 to 0.5
15,"C=CC(=O)N1Cc2cc(OC3CCC(F)(F)CC3)ccc2C(C)C1 (stereo not shown) [P-0094, 1-(7-((4,4-difluorocyclohexyl)oxy)-4-methyl-3,4-dihydroisoquinolin-2(1H)-yl)prop-2-en-1-one]",0.001 to 0.5
16,"C=CC(=O)N1CCc2c(F)cc(OC3CCC(F)(F)CC3)cc2C1 [P-0095, 1-(7-((4,4-difluorocyclohexyl)oxy)-5-fluoro-3,4-dihydroisoquinolin-2(1H)-yl)prop-2-en-1-one]",0.001 to 0.5
17,"C=CC(=O)N1CCc2ccc(OCc3ccccc3F)cc2C1 [P-0096, 1-(7-((2-fluorobenzyl)oxy)-3,4-dihydroisoquinolin-2(1H)-yl)prop-2-en-1-one]",> 20
18,"C=CC(=O)N1CCc2ccc(NC3CCC4(CC3)CC4)cc2C1 [P-0097, 1-(7-(spiro[2.5]octan-6-ylamino)-3,4-dihydroisoquinolin-2(1H)-yl)prop-2-en-1-one]",0.5 to 20
19,"C=CC(=O)N1CCc2cc(F)c(Oc3ccc(C(F)(F)F)c(F)c3)cc2C1 [P-0098, 1-(6-fluoro-7-(3-fluoro-4-(trifluoromethyl)phenoxy)-3,4-dihydroisoquinolin-2(1H)-yl)prop-2-en-1-one]",0.001 to 0.5

row,Compound,IC50 [µM]
1,"C=CC(=O)N1CCc2cc(C)c(Oc3ccc(C(F)(F)F)c(F)c3)cc2C1 [P-0099, 1-(7-(3-fluoro-4-(trifluoromethyl)phenoxy)-6-methyl-3,4-dihydroisoquinolin-2(1H)-yl)prop-2-en-1-one]",0.001 to 0.5
2,"C=CC(=O)N1CCc2ccc(NCC3CCC(F)(F)CC3)cc2C1 [P-0100, 1-(7-(((4,4-difluorocyclohexyl)methyl)ami-no)-3,4-dihydroisoquinolin-2(1H)-yl)prop-2-en-1-one]",0.001 to 0.5
3,"C=CC(=O)N1CCc2c(F)cc(Oc3ccc(C(F)(F)F)nc3)cc2C1 [P-0101, 1-(5-fluoro-7-((6-(trifluoromethyl)pyridin-3-yl)oxy)-3,4-dihydroisoquinolin-2(1H)-yl)prop-2-en-1-one]",0.001 to 0.5
4,"C=CC(=O)N1CCc2cc(F)c(OC3CCC(F)(F)CC3)cc2C1 [P-0102, 1-(7-((4,4-difluorocyclohexyl)oxy)-6-fluoro-3,4-dihydroisoquinolin-2(1H)-yl)prop-2-en-1-one]",0.001 to 0.5
5,"C=CC(=O)N1CCc2cc(F)c(Oc3ccc(C(F)(F)F)cc3)cc2C1 [P-0103, 1-(6-fluoro-7-(4-(trifluoromethyl)phenoxy)-3,4-dihydroisoquinolin-2(1H)-yl)prop-2-en-1-one]",0.001 to 0.5
6,"C=CC(=O)N1CCc2ccc(Cc3ccc(C(F)(F)F)nc3)cc2C1 [P-0104, 1-(7-((6-(trifluoromethyl)pyridin-3-yl)methyl)-3,4-dihydroisoquinolin-2(1H)-yl)prop-2-en-1-one]",0.001 to 0.5
7,"C=CC(=O)N1CCc2ccc(C(F)c3ccc(C(F)(F)F)nc3)cc2C1 (stereo not shown) [P-0105, 1-(7-(fluoro(6-(trifluoromethyl)pyridin-3-yl)methyl)-3,4-dihydroisoquinolin-2(1H)-yl)prop-2-en-1-one]",0.5 to 20
8,"C=CC(=O)N1CCc2ccc(C(F)(F)c3ccc(C(F)(F)F)nc3)cc2C1 [P-0106, 1-(7-(difluoro(6-(trifluoromethyl)pyridin-3-yl)methyl)-3,4-dihydroisoquinolin-2(1H)-yl)prop-2-en-1-one]",0.001 to 0.5
9,"C=CC(=O)N1CCc2ccc(OCC3CC(F)(F)C3)cc2C1 [P-0107, 1-(7-((3,3-difluorocyclobutyl)methoxy)-3,4-dihydroisoquinolin-2(1H)-yl)prop-2-en-1-one]",0.001 to 0.5
10,"C=CC(=O)N1CCc2ccc(OCC34CC5CC(CC(C5)C3)C4)cc2C1 [P-0108, 1-(7-(((3r,5r,7r)-adamantan-1-yl)methoxy)-3,4-dihydroisoquinolin-2(1H)-yl)prop-2-en-1-one]",0.001 to 0.5
11,"C=CC(=O)N1CCc2ccc(Oc3ccc(C4(C)CC4)cc3)cc2C1 [P-0109, 1-(7-(4-(1-methylcyclopropyl)phenoxy)-3,4-dihydroisoquinolin-2(1H)-yl)prop-2-en-1-one]",0.001 to 0.5
12,"C=CC(=O)N1CCc2ccc(OCC34CCC(CC3)C4)cc2C1 [P-0110, 1-(7-(bicyclo[2.2.1]heptan-1-ylmethoxy)-3,4-dihydroisoquinolin-2(1H)-yl)prop-2-en-1-one]",0.001 to 0.5
13,"C=CC(=O)N1CCc2ccc(OCC3CC4C(C3)C4(F)F)cc2C1 (stereo not shown) [P-0111, 1-(7-((6,6-difluorobicyclo[3.1.0]hexan-3-yl)methoxy)-3,4-dihydroisoquinolin-2(1H)-yl)prop-2-en-1-one]",0.001 to 0.5
14,"C=CC(=O)N1Cc2cc(Oc3ccc(C(F)(F)F)cc3)ccc2C[C@H]1C(=O)OC [P-0112, methyl (S)-2-acryloyl-7-(4-(trifluoromethyl)phenoxy)-1,2,3,4-tetrahydroisoquinoline-3-carboxylate]",0.001 to 0.5
15,"C=CC(=O)N1CCc2c(F)cc(Oc3ccc(C(F)(F)F)cc3)cc2C1 [P-0113, 1-(5-fluoro-7-(4-(trifluoromethyl)phenoxy)-3,4-dihydroisoquinolin-2(1H)-yl)prop-2-en-1-one]",0.001 to 0.5
16,"C=CS(=O)(=O)N1CCc2ccc(Oc3ccc(C(F)(F)F)cc3)cc2C1 [P-0114, 7-(4-(trifluoromethyl)phenoxy)-2-(vinylsulfonyl)-1,2,3,4-tetrahydroisoquinoline]",0.5 to 20
17,"C=CC(=O)N1CCc2ccc(Oc3ccc(C#N)cc3)cc2C1 [P-0115, 4-((2-acryloyl-1,2,3,4-tetrahydroisoquinolin-7-yl)oxy)benzonitrile]",0.001 to 0.5
18,"CN(C)C/C=C/C(=O)N1CCc2ccc(Oc3ccc(C(F)(F)F)cc3)cc2C1 [P-0116, (E)-4-(dimethylamino)-1-(7-(4-(trifluoromethyl)phenoxy)-3,4-dihydroisoquinolin-2(1H)-yl)but-2-en-1-one]",0.5 to 20
